This is an account of results in patent US10624881B2, “Methods for inducing apoptosis in cancer cells” (Health Research, Inc., priority 2015, dated 2020).

The test system of one series is NALM6. Nature of the series: Cell proliferation assay, NALM6 cells. It is filed as cell-based. The conditions noted are these: 72 h, read-out: IC50 of Compounds, NALM6.
Another series deals with NALM6-shp53. The experiment in a line: Cell proliferation assay, NALM6-shp53 cells (p53 shRNA knockdown). It is filed as cell-based. Here is the method: Proliferation and apoptosis assays. Growth inhibition assays and apoptosis assays were carried out as described previously.
A further series concerns RL4RH cells. Nature of the series: RRCL proliferation assay, drug-resistant lymphoma RL4RH cells. It is filed as cell-based. The conditions noted are these: for IC50: 3-day treatment.
A further series relates to Raji4RH cells. Nature of the series: RRCL proliferation assay, drug-resistant lymphoma Raji4RH cells. Type of series: cell-based. The conditions noted are these: for IC50: 3-day treatment.
The test system of the next series is mouse bone marrow cells. Conditions: for IC50: read-out: IC50, CFU-GM, mouse bone marrow cells, 7-day continuous treatment. Here is the method:
For the bone marrow toxicity assay, the following method was used. 400 μL of murine marrow mononuclear cells (2.0×10^5/mL) in IMDM containing 20% FBS, 10 units/mL recombinant murine GM-CSF, 10% of a 10× drug solution or control solution (DMSO), and 0.3% agarose were pipetted into microwells containing a 0.4-mL underlayer of IMDM and 0.3% agarose. The cultures were allowed to gel at 4° C. for 15 min and incubated at 37° C. in a fully humidified atmosphere of 5% CO2 in air for 7 days. CFU-GM colonies (aggregates of ≥40 cells) were counted with an inverted microscope using phase contrast. Percent survivals were calculated as 100× (the number of colonies in the drug-treated groups divided by the number of colonies in the vehicle control-treated group). IC50 values were determined.

In another series the target is T1, Mdm2-MdmX E3 ligase (Homo sapiens, UniProt O15151).
T1 construct: FLAG; made in house; host or cells: insect cells (baculovirus)
T1 sequence (O15151 1-490): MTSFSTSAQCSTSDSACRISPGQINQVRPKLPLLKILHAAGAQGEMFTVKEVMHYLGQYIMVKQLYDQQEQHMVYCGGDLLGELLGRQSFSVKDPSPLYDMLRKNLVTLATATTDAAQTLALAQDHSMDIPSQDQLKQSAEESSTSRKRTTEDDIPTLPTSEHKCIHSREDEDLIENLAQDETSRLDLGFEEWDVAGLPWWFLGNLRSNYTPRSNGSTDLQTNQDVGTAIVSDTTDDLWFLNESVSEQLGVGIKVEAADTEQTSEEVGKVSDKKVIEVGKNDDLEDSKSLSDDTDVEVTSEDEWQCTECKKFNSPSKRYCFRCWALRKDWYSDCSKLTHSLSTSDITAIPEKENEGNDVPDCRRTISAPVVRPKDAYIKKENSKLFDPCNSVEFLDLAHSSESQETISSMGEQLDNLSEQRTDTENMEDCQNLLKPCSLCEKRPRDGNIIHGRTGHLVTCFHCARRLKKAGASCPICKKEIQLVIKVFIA
Nature of the series: In vitro MdmX-stimulated Mdm2 autoubiquitination (Western blot). The conditions noted are these: compound 10 μM. Type of series: biochemical. The text has this: (§1) Materials and Methods. Plasmids, Protein Purification, and Chemical Reagents. FLAG-MdmX and HA-Mdm2 (human) constructs for insect cell expression and protein purification were described previously. HA-ubiquitin construct was generated by inserting HA-tag to the N-terminus of ubiquitin in pET28a vector. The mammalian expression plasmid pcDNA3.1-HdmX was a gift from Dr. Gokul Das (Roswell Park Cancer Institute).
In vitro validation assays by Mdm2 autoubiquitination and p53 ubiquitination by Mdm2-MdmX and NEDD4-1 autoubiquitination. In order to test the compound specificity, we used two sets of ubiquitination reaction. One is MdmX stimulated Mdm2 autoubiquitination, the other is NEDD4-1 autoubiquitination. […] The former reaction includes 100 nM HA-tagged Mdm2 and 200 nM MdmX, and latter reaction includes 200 nM HA-tagged NEDD4-1. After adding compound to final concentration of 10 μM, the reaction was started by incubation at 30° C. in a water bath for one hour. Then the reaction was stopped by adding SDS sample buffer, followed by SDS-PAGE and Western blot analysis for HA or NEDD4-1. In vitro assays for p53 ubiquitination by Mdm2-MdmX were performed as described previously. Briefly, reactions were carried out as described above for Mdm2 autoubiquitination except for addition of 100 nM p53. Compounds or DMSO of final concentrations of 10 μM were added in the reaction before starting the reaction at 30° C. for 1 h followed by WB of p53 with DO-1 antibody.

In a further series the target is T2, Mdm2 RING domain (Homo sapiens, UniProt Q00987, DEL223-299).
T2 construct: made in house; host or cells: insect cells (recombinant baculovirus)
Nature of the series: In vitro autoubiquitination of Mdm2 RING domain (RING-RING homo-dimers). It is filed as biochemical. Conditions: compound 10 μM, Western blot. The protocol: In vitro ubiquitination assays were performed with Mdm2 (100 nM) and MdmX (200 nM) in the presence of nothing (C), DMSO (10 μM) or indicated compounds (10 μM), followed by WB of Mdm2 with anti-HA antibody. […] In vitro ubiquitination assays were performed with Mdm2-RING domain (100 nM) in the presence of nothing (C), DMSO (10 μM) or indicated compounds (10 μM), followed by WB of Mdm2 with anti-HA. […] FLAG-MdmX and HA-Mdm2-RING domain (HA-Mdm2R) were incubated in vitro in the presence of nothing (positive control), or DMSO (10 μM) or indicated compounds (10 μM), followed by pulldown with anti-FLAG-beads (M2) and WB of MdmX and Mdm2-RING domain with anti-FLAG and anti-HA antibodies respectively. The negative control (Neg) contains all components as in positive control sample except for missing of FLAG-MdmX.
To directly evaluate the ability of these compounds in inhibiting Mdm2-MdmX interaction, we performed in vitro pulldown experiments using recombinant FLAG-MdmX and HA-Mdm2RING proteins. After incubation of the two proteins in test tubes in the presence or absence of test compounds for 30 min at RT, FLAG-MdmX was pulled down with anti-FLAG beads followed by detection of MdmX-bound HA-Mdm2RING domain by Western blotting for HA-tag.
as §1

The test system of another series is NALM6 cells. Nature of the series: Flow cytometry of sub-G1 population in NALM6 cells (PI staining). Type of series: cell-based. The text has this: Sub-G1 fractions of each treatment were shown.
Proliferation and apoptosis assays.

The subject of a further series is NALM6-shp53 cells. Nature of the series: Apoptosis markers in NALM6-shp53 cells (Western blot). It is filed as cell-based. Conditions: NALM6-shp53 versus NALM6, 24 h. The text has this:
Actin was the loading control.
A general note: In western blotting, separated proteins are transferred to a membrane and probed.

Series [1] relates to p53 pathway in HCT8 cells. The conditions noted are these: Western blot, time- and concentration-dependent.
The subject of series [2] is p53 pathway in NALM6 cells.

Read-outs that look alike come from different tables or passages of the source.

T2 sequence (Q00987 with tags, fused parts or gaps isoform Q00987-2 DEL28-104): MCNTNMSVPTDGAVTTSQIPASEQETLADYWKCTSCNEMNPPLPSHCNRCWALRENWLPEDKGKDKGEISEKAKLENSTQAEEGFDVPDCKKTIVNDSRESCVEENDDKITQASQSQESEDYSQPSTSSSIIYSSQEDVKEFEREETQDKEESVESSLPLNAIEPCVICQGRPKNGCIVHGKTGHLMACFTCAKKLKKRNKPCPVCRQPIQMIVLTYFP

Take `COc1cc([C@@H]2c3cc4c(cc3[C@@H](O[C@@H]3O[C@@H]5CO[C@@H](C)O[C@H]5[C@H](O)[C@H]3O)[C@H]3COC(=O)[C@H]23)OCO4)cc(OC)c1O` [Etoposide, etoposide]: the half-inhibitory concentration (IC50) (usually the concentration needed to halve the response being measured) in the series on NALM6 (listed as marked (nM)) stood at 2.23 nM; in the series on NALM6-shp53 (72 h, listed as marked (nM), read-out: IC50 of Compounds, NALM6-shp53) it was 19.9 nM; in the series on RL4RH cells, 6300 nM; in the series with Raji4RH cells, 1700 nM; with mouse bone marrow cells, 320 nM. For the same molecule, in the series on NALM6-shp53 (IC50 NALM6-shp53 versus NALM6, 72 h), the Fold change turned out to be 9x. Also, the “TW BM/CC, RL4RH” value with RL4RH cells (therapeutic window, CFU-GM IC50 versus RL4RH IC50) was −19x. Also, the “TW BM/CC, Raji4RH” value with Raji4RH cells (therapeutic window, CFU-GM IC50 versus Raji4RH IC50) is given as −5x. The “fold more toxic to normal mouse bone marrow cells” value in the series with mouse bone marrow cells is reported as 5 fold. Moreover, in the series with mouse bone marrow cells, the “fold more toxic to normal mouse bone marrow cells relative to RRCLs” value is 5-20 fold.

With `Oc1c(C(Nc2ccccn2)c2ccc(Cl)c(Cl)c2)ccc2cccnc12` (stereo not shown) [MMRi61], on Mdm2-MdmX E3 ligase, the “inhibition of Mdm2 autoubiquitination stimulated by MdmX” value (from here on “inhibition … by MdmX”) is “inhibit”. In addition, on Mdm2 RING domain, the “inhibition of autoubiquitination of Mdm2 RING domain (RING-RING homo-dimers)” value (“inhibition … (RING-RING homo-dimers)” below) was “do not inhibit”.

For the molecule `Oc1c(C(Nc2ccccn2)c2cccc(Cl)c2Cl)ccc2cccnc12` (stereo not shown) [MMRi62], at Mdm2-MdmX E3 ligase, the “inhibition … by MdmX” value is given as “inhibit”. Also, the “inhibition … (RING-RING homo-dimers)” value at Mdm2 RING domain is recorded as “do not inhibit”.

`Oc1c(C(Nc2ccccn2)c2cccc(Br)c2)cc(Cl)c2cccnc12` (stereo not shown) [MMRi63]: on Mdm2-MdmX E3 ligase, the “inhibition … by MdmX” value was “inhibit”. Besides, the “inhibition … (RING-RING homo-dimers)” value on Mdm2 RING domain is listed as “do not inhibit”.

Take `Cc1ccnc(NC(c2cccc(Cl)c2Cl)c2ccc3cccnc3c2O)c1` (stereo not shown) [MMRi64]: the IC50 with NALM6 was determined as 145 nM; in the series with RL4RH cells it was 1000 nM; in the series with Raji4RH cells, 180 nM; with mouse bone marrow cells, 1600 nM. Further, the sub-G1 population turned out to be 0.73% with NALM6 cells (0.2 μM, single treatment, combination experiment); 2.5% in the series with NALM6 cells (0.4 μM, single treatment, combination experiment); 7.3% with NALM6 cells (0.5 μM, 48 h); 20% in the series on NALM6 cells (1 μM, 48 h). Also, in the series on NALM6-shp53 cells, the “effect of shRNA knockdown of p53 on apoptosis induction” value is recorded as “did not affect apoptosis induction”.

For the molecule `Oc1c(C(Nc2ccccn2)c2ccccc2Br)cc(Cl)c2cccnc12` (stereo not shown) [MMRi65], the “inhibition … by MdmX” value on Mdm2-MdmX E3 ligase is listed as “inhibit”. The “inhibition … (RING-RING homo-dimers)” value against Mdm2 RING domain is “do not inhibit”.

For the molecule `COc1ccc(C2=N[C@@H](c3ccc(Cl)cc3)[C@@H](c3ccc(Cl)cc3)N2C(=O)N2CCNC(=O)C2)c(OC(C)C)c1` [Nutlin3a, reference compound], the half-inhibitory concentration (IC50) in the series with NALM6 stood at 1270 nM. Further, the sub-G1 population with NALM6 cells (0.5 μM, 48 h) is listed as 0.4%; in the series on NALM6 cells (1 μM, 48 h) it was 0.8%; in the series on NALM6 cells (2 μM, 48 h) it was 3.0%; with NALM6 cells (2 μM, single treatment, combination experiment) it was 1.3%. Further, the “effect on MdmX level in HCT8 cells” value in [1] was “not obvious”. In series [2] (1 μM, time course), the “PUMA induction in NALM6 cells” value is “stronger p53 accumulation and PUMA induction than MMRi64”. The “p21 induction in NALM6 cells” value in series [2] (1 μM, time course to 24 h) is listed as “strong induction of growth-arresting effector p21”. Further, the “effect on Mdm2 expression in NALM6 cells” value in [2] (Western blot) is “strong induction of Mdm2 protein”. For the same molecule, in series [2] (Western blot), the “effect on MdmX levels in NALM6 cells” value is on record as “slightly decreased MdmX levels”.
